Assay results from US4681894A, “Hydroxamic acids and esters” (Ortho Pharmaceutical Corporation, priority 1986, dated 1987).

Assays:
[1] = tested on: Lewis strain laboratory rats; assay: In vivo alleviation of inflammation: Mycobacterium butyricum-induced polyarthritis, inhibition of paw volume increase; set-up: species or system rat (Lewis strain); conditions: Rattus norvegicus, po, five consecutive days from day 10, paw volume about 4 h after final dose, read-out: % Inhibition Oral Dosage (percentage inhibition of pad swelling); for inhibition in vivo at 50 mg/kg: 50 mg/kg p.o.
Procedure: Polyarthritis was induced in Lewis strain laboratory rats (weight=about 200 grams) by injection of a suspension of Mycobacterium butyricum in mineral oil into the subplantar tissue of the mammals' hind paws. On day 10 after the injection, the rats were assigned to groups, and paw volumes and body weights were recorded. Paw volumes of the contralateral, uninjected hind paw were determined by mercury plethylsmography. Per os (p.o.) dosing began and continued for five consecutive days thereafter. On day 14 after the initial injection, approximately four hours after the final dose was administered, paw volumes and body weights were recorded and quantitated.
Anti-inflammatory activity of the substituted naphthalene compounds is expressed as the present inhibition of paw volume increase.

[2] = molecular target: T1, 5-lipoxygenase (Rattus norvegicus, UniProt P12527); assay: Inhibition of 5-lipoxygenase (5-HETE production) in whole RBL-1 cells; format: cell-based; conditions: in vitro, RBL-1 whole cells, A23187 1.9 μM, 55 μM 14C-arachidonic acid, 37° C; highest concentration tested 10 μM; read-out: IC50 (lipoxygenase inhibitory activity)
T1 construct: 5-HETE Production in Whole Cells; endogenous in cells; host or cells: RBL-1 (rat basophilic leukemia cells)
T1 sequence (P12527 1-673): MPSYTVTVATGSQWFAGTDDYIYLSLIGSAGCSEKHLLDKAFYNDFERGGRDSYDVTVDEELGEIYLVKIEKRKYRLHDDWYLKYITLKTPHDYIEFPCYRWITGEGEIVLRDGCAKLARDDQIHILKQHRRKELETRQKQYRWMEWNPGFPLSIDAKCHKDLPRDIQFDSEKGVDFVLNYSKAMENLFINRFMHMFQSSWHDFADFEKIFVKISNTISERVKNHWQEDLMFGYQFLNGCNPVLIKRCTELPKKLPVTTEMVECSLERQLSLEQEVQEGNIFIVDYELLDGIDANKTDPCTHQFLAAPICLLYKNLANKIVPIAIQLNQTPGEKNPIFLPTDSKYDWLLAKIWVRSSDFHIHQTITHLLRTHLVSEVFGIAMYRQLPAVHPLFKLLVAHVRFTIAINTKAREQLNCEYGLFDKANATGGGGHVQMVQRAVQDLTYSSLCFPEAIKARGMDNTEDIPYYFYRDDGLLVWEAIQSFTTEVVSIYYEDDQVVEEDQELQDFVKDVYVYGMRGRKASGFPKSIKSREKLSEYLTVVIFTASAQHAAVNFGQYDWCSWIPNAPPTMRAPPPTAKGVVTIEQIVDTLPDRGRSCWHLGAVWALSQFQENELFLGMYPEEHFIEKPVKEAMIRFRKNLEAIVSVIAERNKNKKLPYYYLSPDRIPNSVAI
Procedure: Rat basophilic leukemia cells (RBL-1) were grown in Eagle's Minimal Essential Medium containing 10% fetal calf serum. 5% calf serum, 1% glutamine and 50 mg/l gentamycin were maintained at 37° C. in an atmosphere containing 5% CO2. Exponentially growing cells were harvested by centrifugation at 400×g for 10 minutes at 4° C. and were washed once with Dulbecco's phosphate buffered saline containing 0.87 mM CaCl2. The cells were resuspended in the same buffer at a concentration of 1.85×10^7 cells/ml.
RBL-1 cells (1.57×10^7 cells/tube) were preincubated for 10 minutes at 37° C. in the presence of the indicated drugs or vehicle (1% DMSO). Following the transfer of the assay tubes to an icebath, the reaction was initiated by the sequential addition of calcium ionophore A23187, an agent which increases the ability of divalent ions such as Ca^++ to cross biological membranes (final concentration=1.9 μM) and 55 μM 1-^14 C-arachidonic acid (New England Nuclear) at a final specific activity of 3000-4000 cpm/nmole. The final volume in each tube was 1 ml. The assay tubes were incubated at 37° C. for 5 minutes, and the reaction was stopped by transferring the tubes to ice and adjusting the pH of the reaction mixture to pH 3.0-3.5 by the addition of 1M citric acid.
In order to isolate the Δ5 -lipoxygenase product, ^14 C-5-HETE that was formed from arachidonic acid, each assay tube was extracted once with 6 volumes of anhydrous diethyl ether. In most assays, the recovery of product was estimated by determining the total amount of radioactivity recovered after extraction. In the remaining assays the recovery of ^14 C-5-HETE was monitored by addition of trace quantities of ^3 H-5-HETE (New England Nuclear) prior to extraction. The ether fractions from each sample were dried under nitrogen, redissolved and spotted on Gleman silica gel-impregnated glass fiber sheets. The plates were developed in iso-octane:2-butanone:glacial acetic acid (100:9:1). The area of each plate corresponding to added 5-HETE standard was visualized in an iodine chamber. The amount of ^14 C-5-HETE presented was quantitated by liquid scintillation counting in Aquasol II (New England Nuclear) and corrected for recovery. The percent inhibition of lipoxygenase activity represents the decrease in the amount of product formed from arachidonic acid by the cells or cell supernatant in the presence of drug. The values for negative controls (assays incubated on ice in the presence of citric acid) were always less than 10% of the positive controls and were subtracted from each tube. The IC50 is the concentration of drug which is required for 50% inhibition of the enzyme, as determined graphically from assays using multiple concentrations of drug.

SMILES: CCOC(=O)CCCCCCC(=O)c1ccc2cc(OC)ccc2c1 [Example 1, Ethyl 8-(6-methoxy-2-naphthyl)-8-oxooctanoate]
- inhibition in vivo at 50 mg/kg [1]: 48%

SMILES: CCOC(=O)CCCCC(=O)c1ccc2cc(OC)ccc2c1 [Example 2, Ethyl 6-(6-methoxy-2-naphthyl)-6-oxohexanoate]
- inhibition in vivo at 22 mg/kg ([1]; 22 mg/kg p.o.): 50%
- IC50 [2]: > 10000 nM

SMILES: COC(=O)CCCCCCC(=O)c1ccc2cc(OC)ccc2c1 [Example 4, Methyl 8-(6-methoxy-2-naphthyl)-8-oxooctanoate]
- inhibition in vivo at 50 mg/kg [1]: 53%

SMILES: COc1ccc2cc(C(=O)CCCCCCC(=O)O)ccc2c1 [Example 6, 8-(6-Methoxy-2-naphthyl)-8-oxooctanoic acid]
- inhibition in vivo at 50 mg/kg [1]: 47%

SMILES: CCOC(=O)CCCCC(=O)c1ccc2cc(O)ccc2c1 [Example 8, Ethyl 6-(6-hydroxy-2-naphthyl)-6-oxohexanoate]
- inhibition in vivo at 50 mg/kg [1]: 12%
- IC50 [2]: > 10000 nM

SMILES: C=CCOc1ccc2cc(C(=O)CCCCC(=O)OCC)ccc2c1 [Example 12, Ethyl 6-(6-allyloxy-2-naphthyl)-6-oxohexanoate]
- inhibition in vivo at 50 mg/kg [1]: 44%
- IC50 [2]: > 10000 nM

SMILES: C#CCOc1ccc2cc(C(=O)CCCCC(=O)OCC)ccc2c1 [Example 14, Ethyl 6-(6-propynyloxy-2-naphthyl)-6-oxohexanoate]
- inhibition in vivo at 50 mg/kg [1]: 23%

SMILES: COc1ccc2cc(C(=O)CCCCC(=O)N(C)O)ccc2c1 [Example 15, N-Hydroxy-N-methyl-6-(6-methoxy-2-naphthyl)-6-oxohexanamide]
- inhibition in vivo at 40 mg/kg ([1]; 40 mg/kg p.o.): 34%
- IC50 [2]: 250 nM

SMILES: COc1ccc2cc(C(=O)CCCCC(=O)NO)ccc2c1 [Example 16, N-Hydroxy-6-(6-methoxy-2-naphthyl)-6-oxohexanamide]
- IC50 [2]: 10000 nM

SMILES: CCN(O)C(=O)CCCCC(=O)c1ccc2cc(OC)ccc2c1 [Example 17, N-Ethyl-N-hydroxy-6-(6-methoxy-2-naphthyl)-6-oxohexanamide]
- inhibition in vivo at 50 mg/kg [1]: 23%
- IC50 [2]: 110 nM

SMILES: CCCCN(O)C(=O)CCCCC(=O)c1ccc2cc(OC)ccc2c1 [Example 18, N-Butyl-N-hydroxy-6-(6-methoxy-2-naphthyl)-6-oxohexanamide]
- IC50 [2]: 370 nM

SMILES: CCCCCCCN(O)C(=O)CCCCC(=O)c1ccc2cc(OC)ccc2c1 [Example 19, N-Heptyl-N-hydroxy-6-(6-methoxy-2-naphthyl)-6-oxohexanamide]
- IC50 [2]: 1600 nM

SMILES: COc1ccc2cc(C(=O)CCCCC(=O)N(O)C(C)(C)C)ccc2c1 [Example 20, N-tert-Butyl-N-hydroxy-6-(6-methoxy-2-naphthyl)-6-oxohexanamide]
- IC50 [2]: 450 nM

SMILES: COc1ccc2cc(C(=O)CCCCC(=O)N(O)C3CCCCC3)ccc2c1 [Example 21, N-Hydroxy-N-cyclohexyl-6-(6-methoxy-2-naphthyl)-6-oxohexanamide]
- inhibition in vivo at 50 mg/kg [1]: 33%
- IC50 [2]: 400 nM

SMILES: COc1ccc2cc(C(=O)CCCCC(=O)N(O)c3ccccc3)ccc2c1 [Example 22, N-Hydroxy-N-phenyl-6-(6-methoxy-2-naphthyl)-6-oxohexanamide]
- inhibition in vivo at 50 mg/kg [1]: 28%
- IC50 [2]: 100 nM

SMILES: COc1ccc2cc(C(=O)CCCCC(=O)N(C)OC)ccc2c1 [Example 23, N-Methoxy-N-methyl-6-(6-methoxy-2-naphthyl)-6-oxohexanamide]
- inhibition in vivo at 50 mg/kg [1]: 60%
- IC50 [2]: > 10000 nM

SMILES: COc1ccc2cc(C(=O)CCCCC(=O)N(O)C(C)C)ccc2c1 [Example 24, N-Hydroxy-N-isopropyl-6-(6-methoxy-2-naphthyl)-6-oxohexanamide]
- inhibition in vivo at 50 mg/kg [1]: 51%
- IC50 [2]: 120 nM
